Experiment [1] deals with monoclonal antibody-induced arthritis. Put plainly: Monoclonal antibody-induced arthritis (MAIA) mouse model, footpad and ankle swelling. Type of experiment: in vivo. Set-up: footpad and ankle swelling: dose or concentration left out as unconfirmed. As to conditions: BALB/c mice. The method, then:
In a typical MAIA experiment, groups of four mice were injected intraperitoneally (“i.p.”) with 0.4 mL (BALB/c and DBA/1 strains) or 0.8 mL (C57BL/6, 129X1/SvJ, C3H/HeJ, and C3H/FeJ strains) with a 10 mg/mL solution of Arthrogen-CIA Monoclonal Antibody Blend (Chemicon International, Inc.). Two days later, the mice were injected i.p. with 0.2 mL of a 0.25 mg/mL solution of LPS (lipopolysaccharide form Escherichia coli (“E. coli”) strain 0111B4) in PBS. Footpad and ankle size was assessed using a Dyer Digital Caliper (#655-030-4916) on the day of mAb injection, and every two days following LPS injection.

Experiment [2] concerns monosodium iodoacetate (MIA)-induced osteoarthritis. The experiment can be described thus: MIA rat model, acute single oral dose: change in hind paw weight distribution (joint pain). Type of experiment: in vivo. As to conditions: for Day 7 2 hr. (% ± SEM) inhibition of MIA-induced change in hind paw weight distribution / Day 7 4 hr. (% ± SEM) inhibition of MIA-induced change in hind paw weight distribution / Day 7 6 hr. (% ± SEM) inhibition of MIA-induced change in hind paw weight distribution / Day 14 2 hr. (% ± SEM) inhibition of MIA-induced change in hind paw weight distribution / Day 14 4 hr. (% ± SEM) inhibition of MIA-induced change in hind paw weight distribution / Day 14 6 hr. (% ± SEM) inhibition of MIA-induced change in hind paw weight distribution: single oral dose 30 mg/kg; for Day 7 2 hr. (% ± SEM) inhibition of MIA-induced change in hind paw weight distribution: Day 7, 2 hours post dose; for Day 7 4 hr. (% ± SEM) inhibition of MIA-induced change in hind paw weight distribution: Day 7, 4 hours post dose; for Day 7 6 hr. (% ± SEM) inhibition of MIA-induced change in hind paw weight distribution: Day 7, 6 hours post dose; for Day 14 2 hr. (% ± SEM) inhibition of MIA-induced change in hind paw weight distribution: Day 14, 2 hours post dose; for Day 14 4 hr. (% ± SEM) inhibition of MIA-induced change in hind paw weight distribution: Day 14, 4 hours post dose; for Day 14 6 hr. (% ± SEM) inhibition of MIA-induced change in hind paw weight distribution: Day 14, 6 hours post dose. The method, then: (§1) It should be appreciated that in Biological Methods 1, 2, 4, and 5 below, hind paw weight bearing differentials between the paw of the limb having the control joint (in animals administered test compound vehicle only) and the paw of the limb having the contralateral test joint (in control or inducement animals administered test compound vehicle only and in treatment animals administered test compound dissolved in test compound vehicle) were determined using an incapacitance tester, model 2KG (Linton Instrumentation, Norfolk, United Kingdom). The incapacitance tester has a chamber on top with an outwardly sloping front wall that supports a rat's front limbs, and two weight sensing pads, one for each hind paw, that facilitates this determination. The hind paw weight bearing differentials were expressed in grams and calculated as follows: (the average weight in grams placed on the control limb minus the average weight in grams placed on the contralateral test limb for each of the inducement or treatment animals) minus (the average weight in grams placed on the control limb minus the average weight in grams placed on the contralateral test limb for each of the control animals). All results were statistically analyzed by comparing the average results for an induction or treatment group with the average result for its control group at the same time point using analysis of covariance (“ANCOVA”) followed by the Hoehberg's procedure and those with statistical significance had p<0.05 unless otherwise noted.
The rats were anesthetized with 5% volume/volume (“v/v”) isoflurane gas and maintained with 2% v/v isoflurane gas. The anesthetized rats were given a single intra-articular injection of 1 mg of MIA through the infrapatellar ligament of the right knee. MIA was dissolved in physiologic saline and administered in a volume of 50 μL. The contralateral control knee was injected with 50 μL of physiologic saline. Administration of isoflurane gas was discontinued, and the rats became fully conscious about 5 minutes later.
Shifts in hind paw weight distribution from the right to the left hind paws supporting the right (arthritic) and the left (contralateral control) hind leg knee joints were utilized as an index of joint pain and as a measure of compound efficacy. An incapacitance tester (Model 2KG, Linton Instrumentation, UK) was employed for determination of hind paw weight distribution. Each data point is the mean of three readings of 5 seconds duration.
CI-1027 (i.e., 6-(5-carboxy-5-methyl-hexyloxy)-2,2-dimethyl-hexanoic acid, calcium salt) was dissolved in hydroxypropylmethylcellulose (“HPMC”) vehicle (0.05% HPMC+0.2% Tween 80; compound amount was adjusted based on the percent of free acid, i.e., 6-(5-carboxy-5-methyl-hexyloxy)-2,2-dimethyl-hexanoic acid).
[…] Rats were then given a single, 10, 30, or 100 mg/kg, dose of CI-1027 via oral gavage (PO). Changes in hind paw weight distribution were determined 2, 4 and 6 hours post-compound administration.
6-(5-carboxy-5-methyl-hexyloxy)-2,2-dimethyl-hexanoic acid, calcium salt (“CI-1027”) and rofecoxib was tested in the rat MIA model in an acute dosing paradigm as described previously. MIA was injected into the right knee and saline into the left knee of all rats on Day 0. […] Two hours later, the rats were reassessed. The results for inhibition of pain, expressed as a percentage±standard error of the mean, are shown below in Table 5. The percent inhibition of pain was determined as described above in Biological Method 1. […] N=8 rats per group.

Experiment [3] concerns human recombinant IL-6/IL-6sR induced joint pain. The experiment can be described thus: IL-6 with IL-6 soluble receptor induced joint pain in rat. The experiment is classed as in vivo. As to conditions: single oral dose 30 mg/kg. The method, then: as §1
Human recombinant IL-6 (100 ng per rat; R&D Systems, Minneapolis, Minn.) was incubated at room temperature with human recombinant IL-6 soluble receptor (300 ng per rat; R&D Systems, Minneapolis, Minn.) in phosphate buffered saline (“PBS”) for 15 minutes prior to injection. Rats were anesthetized with 5% volume/volume (“v/v”) isoflurane gas and maintained with 2% v/v isoflurane gas. The anesthetized rats were given a single intra-articular injection of IL-6/WL-6sR through the infrapatellar ligament of the right knee in a volume of 50 μL. The contralateral control knee was injected with 50 μL of PBS. Administration of isoflurane gas was discontinued, and the rats became fully conscious about 5 minutes later.
Shifts in hind paw weight distribution from the right (arthritic) to the left (contralateral control) paws were utilized as an index of joint pain and as a measure of compound efficacy. An incapacitance tester (Model 2KG, Linton Instrumentation, UK) was employed for determination of hind paw weight distribution. Each data point is the mean of three, 5-second readings.
CI-1027 was dissolved in BPMC vehicle as described above. Baseline changes in hind paw weight distribution readings were determined one day prior to injection of IL-6/IL-6sR. On the day of the experiment (Day 0), a single dose of CI-1027 (10, 30 or 100 mg/kg) was given via oral gavage 3 hours prior to injection of IL-6/IL-6sR (n=10 rats per group). Changes in hind paw weight distribution were determined one, three, and six hours after injection of IL-6/IL-6sR.
In Table 4 below, data from the method of Biological Method 5 are expressed as a percent inhibition of a change in hind paw weight distribution ± the standard error of the mean. The percents inhibition were calculated as follows. Percent inhibition of a change in hind paw weight distribution [formula] wherein: ΔWC is the hind-paw weight differential between the healthy limb and the hrIL-6+ hrIL-6sR injected limb of the control animal group administered vehicle alone, as measured at time 1, 3, or 6 hours post injection; and
ΔWG is the hind-paw weight differential between the healthy limb and the hrIL-6+ hrIL-6sR injected limb of a treatment animal group as measured at time 1, 3, or 6 hours post injection.

The test system of experiment [4] is carrageenan-induced thermal hyperalgesia. The experiment can be described thus: Carrageenan-induced thermal hyperalgesia (CITH), paw withdrawal latency. Type of experiment: in vivo, rat. As to conditions: Day 1. How it is done: Male Sprague Dawley rats (200-300 g), obtained from Charles River, were housed in groups of 2 under a 12 hour light/dark cycle with food and water ad libitum. Animals were allowed to acclimate to the test room one hour prior to testing.
Thermal hyperalgesia was assessed using the rat plantar test (apparatus from Univ. California, San Diego) following a modified method of Hargreaves et al., 1988. Rats were habituated to the apparatus, which consisted of three perspex boxes that individually housed […] on an elevated glass table. A mobile radiant heat source (halogen lamp) was located under the glass table and focused onto the hind paw. Paw withdrawal latencies (PWL) were recorded in seconds (“s”). An automatic cut off point of 22.5 s was set to prevent tissue damage. The mean of 2-3 PWL was taken at each time point for both hind paws of each animal. The apparatus was calibrated to give a PWL of approximately 10 s before carrageenan administration.
After basal PWL were determined, animals receive an intraplantar 100 μL of 10 mg/mL) into the right hind paw. Lambda carrageenan (Sigma Chemical Co.) was dissolved in isotonic saline 5 minutes prior to injecting. PWL were reassessed following the same protocol 2 hours post carrageenan (this time point represented the start of peak hyperalgesia) to ascertain that hyperalgesia had developed. 6-(5-Carboxy-5-methyl-hexyloxy)-2,2-dimethyl-hexanoic acid, calcium salt was then administered orally via oral dosing needles 2.5 hours post carrageenan injection, and PWL were taken again at 30- or 60-minute intervals post drug administration for 6 hours.
Data consisted of the mean of 2-3 reads/paw for individual animals. Group data was the compiled individual means. Percent inhibition was calculated as follows for each time point: (mean drug treated−mean control)/(mean baseline−mean control)×100.

On to `CN(Cc1cnc2nc(N)nc(N)c2n1)c1ccc(C(=O)N[C@@H](CCC(=O)O)C(=O)O)cc1` [methotrexate, N-[4-[[(2,4-diamino-6-pteridinyl)methyl]methylamino]benzoyl]-L-glutamic acid, reference compound], for which the “footpad and ankle swelling” value in experiment [1] is “significantly inhibit footpad and ankle swelling”.
Take `CC(C)(CCCCCCCCCC(C)(C)C(=O)O)C(=O)O` [A4, 2,2,12,12-tetramethyltridecanedioic acid]: in experiment [2], the “Day 7 2 hr. (% ± SEM) inhibition of MIA-induced change in hind paw weight distribution” value worked out at 25 ± 5%, the “Day 7 4 hr. (% ± SEM) inhibition of MIA-induced change in hind paw weight distribution” value worked out at 38 ± 7%, the “Day 7 6 hr. (% ± SEM) inhibition of MIA-induced change in hind paw weight distribution” value is on record as 43 ± 6% and the “Day 14 2 hr. (% ± SEM) inhibition of MIA-induced change in hind paw weight distribution” value amounted to 35 ± 6%. Moreover, in experiment [2], the “Day 14 4 hr. (% ± SEM) inhibition of MIA-induced change in hind paw weight distribution” value was determined as 29 ± 8% and the “Day 14 6 hr. (% ± SEM) inhibition of MIA-induced change in hind paw weight distribution” value amounted to 55 ± 7%. Further, the “1 hr. (% ± SEM) inhibition of (IL-6/IL-6sR)-induced change in hind paw weight distribution” value in experiment [3] (Day 1, 1 hour post injection of IL-6/IL-6sR) was determined as 70 ± 9%. In experiment [3] (Day 1, 3 hours post injection of IL-6/IL-6sR), the “3 hr. (% ± SEM) inhibition of (IL-6/IL-6sR)-induced change in hind paw weight distribution” value stood at 79 ± 5%. In addition, the “6 hr. (% ± SEM) inhibition of (IL-6/IL-6sR)-induced change in hind paw weight distribution” value in experiment [3] (Day 1, 6 hours post injection of IL-6/IL-6sR) was 26 ± 6%. Further, the “CITH (%) percentage inhibition, paw withdrawal latency” value (“CITH (%) percentage inhibition” below) in experiment [4] (single oral dose 30 mg/kg) is 118%. In addition, the “CITH (%) percentage inhibition” value in experiment [4] (single oral dose 100 mg/kg) was 115%.
`CS(=O)(=O)c1ccc(C2=C(c3ccccc3)C(=O)OC2)cc1` [Rofecoxib, reference compound]: the “Mean pain alleviation at 2 hours post administration (% ± SEM)” value in experiment [2] (rofecoxib 3 mg/kg PO alone, Day 14) was 23 ± 7%.
For `CC(C)(CCCCCOCCCCCC(C)(C)C(=O)O)C(=O)O` [A1, 7,7′-oxybis(2,2-dimethylheptanoic acid)], in experiment [2], the “Day 7 2 hr. (% ± SEM) inhibition of MIA-induced change in hind paw weight distribution” value is given as 50 ± 11%, the “Day 7 4 hr. (% ± SEM) inhibition of MIA-induced change in hind paw weight distribution” value amounted to 15 ± 14%, the “Day 14 2 hr. (% ± SEM) inhibition of MIA-induced change in hind paw weight distribution” value is −3 ± 15% and the “Day 14 4 hr. (% ± SEM) inhibition of MIA-induced change in hind paw weight distribution” value was −9 ± 17%. Also, the “CITH (%) percentage inhibition” value in experiment [4] (single oral dose 30 mg/kg) worked out at 22%.
Turning to `CC(C)(CCOCCC(C)(C)C(=O)O)C(=O)O` [A3, 4,4′-oxybis(2,2-dimethylbutanoic acid)], in experiment [2], the “Day 7 2 hr. (% ± SEM) inhibition of MIA-induced change in hind paw weight distribution” value is recorded as 20 ± 4%, the “Day 7 4 hr. (% ± SEM) inhibition of MIA-induced change in hind paw weight distribution” value amounted to 34 ± 5%, the “Day 7 6 hr. (% ± SEM) inhibition of MIA-induced change in hind paw weight distribution” value is recorded as 81 ± 6% and the “Day 14 2 hr. (% ± SEM) inhibition of MIA-induced change in hind paw weight distribution” value is reported as 33 ± 7%. In experiment [2], the “Day 14 4 hr. (% ± SEM) inhibition of MIA-induced change in hind paw weight distribution” value amounted to 36 ± 3% and the “Day 14 6 hr. (% ± SEM) inhibition of MIA-induced change in hind paw weight distribution” value came to 27 ± 9%. Also, the “CITH (%) percentage inhibition” value in experiment [4] (single oral dose 30 mg/kg) is reported as 20%.
On to `CC(C)(CCCOCCCC(C)(C)C(=O)O)C(=O)O` [A2, 5,5′-oxybis(2,2-dimethylpentanoic acid)], for which, in experiment [2], the “Day 7 2 hr. (% ± SEM) inhibition of MIA-induced change in hind paw weight distribution” value was −11 ± 15^ %, the “Day 7 4 hr. (% ± SEM) inhibition of MIA-induced change in hind paw weight distribution” value amounted to 16 ± 15%, the “Day 14 2 hr. (% ± SEM) inhibition of MIA-induced change in hind paw weight distribution” value is listed as 9 ± 13% and the “Day 14 4 hr. (% ± SEM) inhibition of MIA-induced change in hind paw weight distribution” value came out at 9 ± 20%. In experiment [4] (single oral dose 30 mg/kg), the “CITH (%) percentage inhibition” value is recorded as −3%.

(Values after patent publication US20070203212A1, “METHOD OF TREATING OSTEOARTHRITIS” (WARNER-LAMBERT COMPANY, priority 2002, published 2007).)
